According to patent US8815834B2, “Use of dendrimers to stimulate cell growth” (Centre National de la Recherche Scientifique, priority 2004, dated 2014):

Tested on: human NK cells
Experiment: Culture of PBMC with dendrimer and IL2: amplification and phenotype of NK cells
Settings: in particular at a concentration of 20 μM; FIG. 4B
Method: Peripheral blood mononuclear cells (PBMC) obtained from a healthy adult human donor by centrifugation over a density gradient (Ficoll-Hypaque, Amersham Pharmacia Biotech, Upsalla, SWEDEN) are cultured in sterile cell culture flasks at a concentration of 1.5 million cells per ml of culture medium of the RPMI 1640 type, 25 mM Hepes/Ultraglutamine 1 (Cambrex Bio Science, Verviers, BELGIUM) supplemented with: • i) 1 mM sodium pyruvate (Invitrogen Corporation, Paisley, UNITED KINGDOM) • ii) 100 μg/ml of streptomycin and 100 U/ml of penicillin (Cambrex Bio Science, Verviers, BELGIUM); • iii) 10% by volume of foetal calf serum (Invitrogen Corporation, Paisley, UNITED KINGDOM) decomplemented for 30 minutes at 56° C. (FCS); • iv) 20 μM of GC1 dendrimer solubilized at a concentration of 2 mM in sterile non-pyrogenic PBS; • v) 200 U/ml of human recombinant IL2 (Sanofi-Synthelabo, Paris, FRANCE) is added to the culture medium thus produced. […]
The PBMCs obtained from a healthy adult human donor are cultured for 15 days with GC1 then counted by total counting of the living cells (Ntot). […]
The NK cells obtained starting with PBMCs from healthy donors cultured under the conditions described previously are counted, at the start of the experiment then at the end of 3.5 weeks of culture. […]

O=P(O)(O)CN(CCc1ccc(O)cc1)CP(=O)(O)O [phenol-azabisphosphonic monomer derived from tyramine]
Immunostimulant properties on the in vitro amplification of human NK cells: inactive
